The target of one test is T1, ERK5 (Homo sapiens, UniProt Q13164).
T1 construct: MEF2-luciferase reporter
The test can be described thus: Inhibition of Cellular ERK5 Activity (cell-based assay, MEF2 luciferase reporter in SN12C cells). The settings on record: renal cancer cell line SN12C, doxycycline-induced MEKSDD, mean where repeated. How it is done:
(§1) Two assays were performed to assess the ERK5 inhibitory activity of compounds of the Examples, a cell-based assay and a cell-free biochemical assay. Where repeat measurements were taken, the value reported is a mean average.
The renal cancer cell line SN12C was transduced by a lentivirus pGreenFire1 MEF2 EF1 Neo (ref TR030VA-N) from SBI using standard infection protocol. pGreenFire1 MEF2 EF1 Neo allows the expression of luciferase gene under the control of minimal promoter with MEF2 transcriptional response elements. Cells harboring the reporter construct were selected by geneticin treatment. The selected cells were then transposed by a piggyback based plasmid pCM4007 allowing the expression of constitutively activated MEKSDD under control of TREG3 promoter, a doxycycline regulated promoter. Transposed cells were selected by puromycin treatment. Upon doxycycline treatment (1p g/ml) MEKSDD was expressed. MEKSDD activates ERK5 that phosphorylates MEF2C protein. Activated MEF2C protein can bind to its transcriptional response elements. Then the luciferase is expressed. In a 96-well plate (96F nuncleon refl37101 thermofisher), 50,000 cells were inoculated in 142.5 μl of RPMI medium containing 10% fetal calf serum, 1% glutamine, and 1 μg/ml doxycycline. After 24 hours, compounds were added in 7.5 μl culture medium (with 2% DMSO to give a final concentration of 0.1%) in order to obtain the desired concentration (0.3-1000 nM). The luciferase activity was measured using the Kit Bright Glo Luminescent Cell Assay Cat E2610 (Promega) according to the manufacturer's protocol. Luminescence was determined using 0.2 second reading/well using a Tecan SPARK. IC50 values were calculated using XLFIT5 for Microsoft Excel using method 205. The IC50 values represent the concentration of compound which inhibits the measurable luminescence signal by 50% as compared to DMSO-treated control cells.
Background: In a reporter assay the amount or activity of a reporter protein is the signal.

Test [1] deals with T2, ERK5 (activated catalytic domain) (Homo sapiens, UniProt Q13164).
T2 construct: purchased CarnaBiosciences 04-146
In words: Cell-Free Assay of ERK5 Inhibition (Time-Resolved FRET, 4EBP1 peptide phosphorylation). The test is classed as biochemical. To be noted: ERK5 catalytic domain 4 nM, 1 mM ATP, 1 μM biotinylated 4EBP1 peptide, 30 min at 37° C.; mean where repeated; read-out: Cell-free assay (IC50 in nM). How it is done: as §1
An assay was performed to measure the capacity of each compound to inhibit ERK5 enzymatic activity. Compound potency was evaluated by Time-Resolved Forster Resonance Energy Transfer (FRET system). The activated catalytic domain of protein ERK5 (CarnaBiosciences #04-146) was mixed at 4 nM with varying concentrations of compound and incubated for 30 minutes at room temperature. A mixture of 1 mM ATP and 1 μM biotinylated synthetic peptide was added (Biosyntan GmbH). This synthetic peptide represents amino acids 30-52 of Eukaryotic translation initiation factor 4E-binding protein 1 (see, e.g., the sequence under accession No. NP_004086.1) biotinylated at the N-terminus. After 30 minutes at 37° C., the peptide phosphorylation by ERK5 was measured by addition of FRET reagents consisting of 12.5 μg/ml Streptavidin-XL665, 1 nM Anti-P-4EBP1 antibody and 300 ng/ml Anti-rabbit-K antibody. Following 90 minutes at room temperature fluorescent signals were read on the Pherastar FSX multimod detector from BMG Labtech (Exc° 340 nm, Em1 620 nm, Em2 665 nm). The IC50 values represent the concentration of compound which inhibits the measurable fluorescence signal by 50% as compared to the DMSO only control.

Structures are written as SMILES.

The IC50 is the point on the concentration scale where inhibition reaches its midpoint.

T1 sequence (Q13164 whole entry): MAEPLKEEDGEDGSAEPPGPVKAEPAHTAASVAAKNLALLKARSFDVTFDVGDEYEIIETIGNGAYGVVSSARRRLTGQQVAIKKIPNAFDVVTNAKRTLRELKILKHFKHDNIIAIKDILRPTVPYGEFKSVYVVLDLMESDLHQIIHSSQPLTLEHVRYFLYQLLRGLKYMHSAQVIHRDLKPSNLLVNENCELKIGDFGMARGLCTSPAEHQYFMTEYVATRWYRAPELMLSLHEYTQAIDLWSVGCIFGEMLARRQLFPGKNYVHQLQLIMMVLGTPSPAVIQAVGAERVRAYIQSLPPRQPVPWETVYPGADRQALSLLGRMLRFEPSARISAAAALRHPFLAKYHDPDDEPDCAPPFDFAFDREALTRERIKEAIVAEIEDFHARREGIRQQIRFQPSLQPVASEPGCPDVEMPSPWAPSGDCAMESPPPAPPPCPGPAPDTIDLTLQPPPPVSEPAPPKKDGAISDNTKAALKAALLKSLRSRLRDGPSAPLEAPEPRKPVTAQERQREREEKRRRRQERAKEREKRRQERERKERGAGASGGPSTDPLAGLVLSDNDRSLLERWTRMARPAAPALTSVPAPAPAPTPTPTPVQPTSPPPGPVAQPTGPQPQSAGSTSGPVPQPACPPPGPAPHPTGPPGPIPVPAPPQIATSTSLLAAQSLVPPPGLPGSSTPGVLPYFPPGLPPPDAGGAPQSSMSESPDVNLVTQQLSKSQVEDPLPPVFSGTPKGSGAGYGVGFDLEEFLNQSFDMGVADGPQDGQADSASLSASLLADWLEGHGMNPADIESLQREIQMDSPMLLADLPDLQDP
T2 sequence (Q13164 55-347 limits assumed): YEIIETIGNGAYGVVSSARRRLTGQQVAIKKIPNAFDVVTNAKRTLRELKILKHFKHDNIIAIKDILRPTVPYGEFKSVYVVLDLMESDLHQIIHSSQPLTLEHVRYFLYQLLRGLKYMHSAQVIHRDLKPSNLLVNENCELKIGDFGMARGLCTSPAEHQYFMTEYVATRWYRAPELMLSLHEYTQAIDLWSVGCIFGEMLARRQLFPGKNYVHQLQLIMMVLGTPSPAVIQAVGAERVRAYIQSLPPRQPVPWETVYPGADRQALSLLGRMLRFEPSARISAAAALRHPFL

Turning to `CN1CCC(Oc2cnc3[nH]c(=O)n(C4CCN(C(=O)c5ccc(OC(F)(F)F)cc5N)CC4)c3c2)C1` (racemic) [Example 6, (rac)-1-[1-[2-amino-4-(trifluoromethoxy)benzoyl]-4-piperidyl]-6-(1-methylpyrrolidin-3-yl)oxy-3H-imidazo[4,5-b]pyridin-2-one], the IC50 on ERK5 was 150 nM; in test [1], 77 nM.
With `CN1CCC(Oc2cnc3[nH]c(=O)n(C4CCN(C(=O)c5ccc(OC(F)(F)F)cc5)CC4)c3c2)C1` (racemic) [Example 9, (rac)-6-(1-methylpyrrolidin-3-yl)oxy-1-[1-[4-(trifluoromethoxy)benzoyl]-4-piperidyl]-3H-imidazo[4,5-b]pyridin-2-one], the IC50 against ERK5 turned out to be 413 nM; in test [1] it was 287 nM.
For `O=C(c1ccc(OC(F)(F)F)cc1)N1CCC(n2c(=O)[nH]c3ncc(C4CCOC4)cc32)CC1` (racemic) [Example 15, (rac)-6-Tetrahydrofuran-3-yl-1-[1-[4-(trifluoromethoxy)benzoyl]-4-piperidyl]-3H-imidazo[4,5-b]pyridin-2-one], the IC50 on ERK5 was 282 nM; in test [1], 203 nM.
With `Nc1cc(OC(F)(F)F)ccc1C(=O)N1CCC(n2c(=O)[nH]c3ncc(C4CCOC4)cc32)CC1` (racemic) [Example 16, (rac)-1-[1-[2-Amino-4-(trifluoromethoxy)benzoyl]-4-piperidyl]-6-tetrahydrofuran-3-yl-3H-imidazo[4,5-b]pyridin-2-one], the IC50 is 138 nM at ERK5 and 85 nM in test [1].
For `Nc1cc(OC(F)(F)F)ccc1C(=O)N1CCC(n2c(=O)[nH]c3ncc(C4CCNC(=O)C4)cc32)CC1` (racemic) [Example 22, (rac)-1-[1-[2-amino-4-(trifluoromethoxy)benzoyl]-4-piperidyl]-6-(2-oxo-4-piperidyl)-3H-imidazo[4,5-b]pyridin-2-one] the same measures were 140 nM and 684 nM.
For `Nc1cc(OC(F)(F)F)ccc1C(=O)N1CCC(n2c(=O)[nH]c3ncc(CC4CCOC4)cc32)CC1` (racemic) [Example 23, (rac)-1-[1-[2-amino-4-(trifluoromethoxy)benzoyl]-4-piperidyl]-6-(tetrahydrofuran-3-ylmethyl)-3H-imidazo[4,5-b]pyridin-2-one] the same measures were 184 nM and 86 nM.
`Nc1cc(OC(F)(F)F)ccc1C(=O)N1CCC(n2c(=O)[nH]c3ncc(C4CCCO4)cc32)CC1` (racemic) [Example 25, (rac)-1-[1-[2-amino-4-(trifluoromethoxy)benzoyl]-4-piperidyl]-6-tetrahydrofuran-2-yl-3H-imidazo[4,5-b]pyridin-2-one]: the IC50 against ERK5 turned out to be 57 nM; in test [1] it was 377 nM.
For `Nc1cc(OC(F)(F)F)ccc1C(=O)N1CCC(n2c(=O)[nH]c3ncc(C45CCNCC4C5)cc32)CC1` (racemic) [Example 28, (rac)-1-[1-[2-amino-4-(trifluoromethoxy)benzoyl]-4-piperidyl]-6-(3-azabicyclo[4.1.0]heptan-6-yl)-3H-imidazo[4,5-b]pyridin-2-one, 2,2,2-trifluoroacetic acid], in test [1], the IC50 was determined as 533 nM.
As for `Nc1cc(OC(F)(F)F)ccc1C(=O)N1CCC(n2c(=O)[nH]c3ncc(C45CCOCC4C5)cc32)CC1` (racemic) [Example 31, (rac)-1-[1-[2-amino-4-(trifluoromethoxy)benzoyl]-4-piperidyl]-6-(3-oxabicyclo[4.1.0]heptan-6-yl)-3H-imidazo[4,5-b]pyridin-2-one], the values for the IC50 (against ERK5; in test [1]) were 170 nM and 288 nM, respectively.
`Nc1cc(OC(F)(F)F)ccc1C(=O)N1CCC(n2c(=O)[nH]c3ncc(C45CCCCC4C5)cc32)CC1` (racemic) [Example 34, (rac)-1-[1-[2-amino-4-(trifluoromethoxy)benzoyl]-4-piperidyl]-6-norcaran-1-yl-3H-imidazo[4,5-b]pyridin-2-one]: the concentration for half-maximal inhibition (IC50) against ERK5 worked out at 217 nM; in test [1], 974 nM.
For the compound `Nc1cc(OC(F)(F)F)ccc1C(=O)N1CCC(n2c(=O)[nH]c3ncc(C4CCCCO4)cc32)CC1` (racemic) [Example 38, (rac)-1-[1-[2-amino-4-(trifluoromethoxy)benzoyl]-4-piperidyl]-6-tetrahydropyran-2-yl-3H-imidazo[4,5-b]pyridin-2-one], the IC50 against ERK5 is 541 nM; in test [1], 1470 nM.
Consider `Nc1cc(OC(F)(F)F)ccc1C(=O)N1CCC(n2c(=O)[nH]c3ncc(C4CCCOC4)cc32)CC1` (racemic) [Example 40, (rac)-1-[1-[2-amino-4-(trifluoromethoxy)benzoyl]-4-piperidyl]-6-tetrahydropyran-3-yl-3H-imidazo[4,5-b]pyridin-2-one], for which the IC50 was 168 nM on ERK5 and 291 nM in test [1].
`Nc1cc(S(F)(F)(F)(F)F)ccc1C(=O)N1CCC(n2c(=O)[nH]c3ncc(C4CCOCC4)cc32)C1` (racemic) [Example 49, (rac)-1-[1-[2-amino-4-(pentafluoro-λ^6-sulfanyl)benzoyl]pyrrolidin-3-yl]-6-tetrahydropyran-4-yl-3H-imidazo[4,5-b]pyridin-2-one]: the IC50 turned out to be 278 nM at ERK5 and 587 nM in test [1].
`O=C(c1ccc(OC(F)(F)F)cc1)N1CCC(n2c(=O)[nH]c3ncc([C@@H]4CCC[C@@H](O)CC4)cc32)CC1` (racemic) [Example 61, (rac)-trans-6-(4-hydroxycycloheptyl)-1-[1-[4-(trifluoromethoxy)benzoyl]-4-piperidyl]-3H-imidazo[4,5-b]pyridin-2-one] gave an IC50 against ERK5 of 202 nM.
On the same count and under the same terms, with `O=C(c1ccc(OC(F)(F)F)cc1)N1CCC(n2c(=O)[nH]c3ncc([C@H]4CCC[C@@H](O)CC4)cc32)CC1` (racemic) [Example 62, (rac)-cis-6-(4-hydroxycycloheptyl)-1-[1-[4-(trifluoromethoxy)benzoyl]-4-piperidyl]-3H-imidazo[4,5-b]pyridin-2-one] the figure was 257 nM.
`O=C1CCCC(c2cnc3[nH]c(=O)n(C4CCN(C(=O)c5ccc(OC(F)(F)F)cc5)CC4)c3c2)CC1` (racemic) [Example 63, (rac)-6-(4-oxocycloheptyl)-1-[1-[4-(trifluoromethoxy)benzoyl]-4-piperidyl]-3H-imidazo[4,5-b]pyridine-2-one]: the concentration for half-maximal inhibition (IC50) against ERK5 came out at 254 nM.
For the compound `O=C(c1ccc(OC(F)(F)F)cc1)N1CCC(n2c(=O)[nH]c3ncc([C@@H]4CCCC[C@@H](O)C4)cc32)CC1` (racemic) [Example 66, (rac)-trans-6-(3-hydroxycycloheptyl)-1-[1-[4-(trifluoromethoxy)benzoyl]-4-piperidyl]-3H-imidazo[4,5-b]pyridin-2-one], half-maximal inhibition on ERK5 (IC50) required 547 nM.
`O=C(c1ccc(OC(F)(F)F)cc1)N1CCC(n2c(=O)[nH]c3ncc([C@H]4CCCC[C@@H](O)C4)cc32)CC1` (racemic) [Example 67, (rac)-cis-6-(3-hydroxycycloheptyl)-1-[1-[4-(trifluoromethoxy)benzoyl]-4-piperidyl]-3H-imidazo[4,5-b]pyridin-2-one] came in with an IC50 against ERK5 of 358 nM.
At ERK5, `O=C(c1ccc(OC(F)(F)F)cc1)N1CCC(n2c(=O)[nH]c3ncc(C4CCCC(=NO)CC4)cc32)CC1` (single isomer, unassigned; isomer 1) [Example 64, (rac)-6-[(4E/Z)-4-hydroxyiminocycloheptyl]-1-[1-[4-(trifluoromethoxy)benzoyl]-4-piperidyl]-3H-imidazo[4,5-b]pyridin-2-one, Isomer 1] displayed an IC50 of 358 nM.
On the same count and under the same terms, the value for `O=C(c1ccc(OC(F)(F)F)cc1)N1CCC(n2c(=O)[nH]c3ncc(C4CCCC(=NO)CC4)cc32)CC1` (single isomer, unassigned; isomer 2) [Example 65, (rac)-6-[(4E/Z)-4-hydroxyiminocycloheptyl]-1-[1-[4-(trifluoromethoxy)benzoyl]-4-piperidyl]-3H-imidazo[4,5-b]pyridin-2-one, Isomer 2] was 575 nM.

These data come from US20260297087A1, “Pyridoimidazolone Compounds, Preparation Thereof and Therapeutic Uses Thereof” (Sanofi, priority 2023, published 2026).
